Source: the supplement of paper PMC10307832

Key:
Assay in all cases: relative viability (nuclei count vs DMSO), 5 days (fraction); higher = more cells survive
[1] = compound: C/C(=N\NC(=S)N1CCC1)/C2=CC=CC=N2 + CC(C)C[C@H](NC(=O)[C@H](Cc1ccccc1)NC(=O)c1cnccn1)B(O)O [Bortezomib] (partner 0.002 µM)
Outline: (§1)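 A single step with final 0.05% Triton X-100, 1% formaldehyde and 1 ug/ml Hoechst fixed the cells and stained nuclei 5 days after treatment. Lung cancer cell lines in 1536-well plates had been treated by pin tool the day after seeding with one drug alone or a fixed anchor-drug dose plus five library-drug doses (not always all listed) in √10 steps, and nuclei were counted on 4× images. Relative viability is the ratio of nuclei in treated wells to nuclei in vehicle wells, taken as the median of duplicate plates.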

[2] = compound: C/C(=N\NC(=S)N1CCC1)/C2=CC=CC=N2 + CS(=O)(=O)N1CCN(Cc2cc3nc(-c4cccc5[nH]ncc45)nc(N4CCOCC4)c3s2)CC1 [Pictilisib] (partner 1 µM)
Outline: as §1

[3] = compound: C/C(=N\NC(=S)N1CCC1)/C2=CC=CC=N2 + O=C(c1cc(Cc2n[nH]c(=O)c3ccccc23)ccc1F)N1CCN(C(=O)C2CC2)CC1 [Olaparib] (partner 8 µM)
Outline: as §1

[4] = compound: C/C(=N\NC(=S)N1CCC1)/C2=CC=CC=N2 + CC(=O)Nc1cccc(-n2c(=O)n(C3CC3)c(=O)c3c(Nc4ccc(I)cc4F)n(C)c(=O)c(C)c32)c1 [Trametinib] (partner 0.02 µM)
Outline: as §1

Cell Line | relative viability ([1]; first compound 0.05 µM) | relative viability ([1]; first compound 0.1581 µM) | relative viability ([1]; first compound 0.5 µM) | relative viability ([1]; first compound 1.581 µM) | relative viability ([1]; first compound 5 µM) | relative viability ([2]; first compound 0.05 µM) | relative viability ([2]; first compound 0.1581 µM) | relative viability ([2]; first compound 0.5 µM) | relative viability ([2]; first compound 1.581 µM) | relative viability ([2]; first compound 5 µM) | relative viability ([3]; first compound 0.05 µM) | relative viability ([3]; first compound 0.1581 µM) | relative viability ([3]; first compound 0.5 µM) | relative viability ([3]; first compound 1.581 µM) | relative viability ([3]; first compound 5 µM) | relative viability ([4]; first compound 0.05 µM) | relative viability ([4]; first compound 0.1581 µM) | relative viability ([4]; first compound 0.5 µM) | relative viability ([4]; first compound 1.581 µM) | relative viability ([4]; first compound 5 µM)
HCC-78 | 0.509 | 0.257 | 0.178 | 0.153 | 0.232 | 0.184 | 0.176 | 0.119 | 0.163 | 0.153 | 0.523 | 0.379 | 0.32 | 0.249 | 0.211 | 0.5 | 0.377 | 0.359 | 0.275 | 0.23
HCC-366 | 0.0281 | 0.0189 | 0.0149 | 0.0223 | 0.02 | 0.0297 | 0.0246 | 0.029 | 0.0344 | 0.0355 | 0.119 | 0.0248 | 0.0175 | 0.0198 | 0.0219 | 0.0818 | 0.0309 | 0.0211 | 0.0256 | 0.025
HCC-827 | 0.497 | 0.497 | 0.325 | 0.274 | 0.282 | 0.6 | 0.541 | 0.322 | 0.382 | 0.388 | 0.333 | 0.227 | 0.203 | 0.145 | 0.175 | 0.377 | 0.269 | 0.211 | 0.214 | 0.176
HOP-62 | 0.067 | 0.0599 | 0.0594 | 0.0602 | 0.0491 | 0.0606 | 0.0715 | 0.0848 | 0.0699 | 0.0611 | 0.079 | 0.0776 | 0.0561 | 0.0753 | 0.0802 | 0.216 | 0.212 | 0.112 | 0.131 | 0.112
IA-LM | 0.0596 | 0.0778 | 0.0529 | 0.0604 | 0.0675 | 0.0879 | 0.0508 | 0.0707 | 0.0558 | 0.0544 | 0.115 | 0.107 | 0.101 | 0.0716 | 0.0719 | – | – | – | – | –
LC-2-ad | 0.115 | 0.106 | 0.114 | 0.104 | 0.0851 | 0.141 | 0.106 | 0.103 | 0.103 | 0.117 | 0.234 | 0.21 | 0.199 | 0.196 | 0.2 | 0.238 | 0.222 | 0.223 | 0.232 | 0.231
LCLC-97TM1 | 0.0597 | 0.0472 | 0.0458 | 0.0548 | 0.0452 | 0.101 | 0.141 | 0.0914 | 0.117 | 0.101 | 0.0715 | 0.422 | 0.0519 | 0.0494 | 0.0514 | 0.0885 | 0.152 | 0.0765 | 0.0664 | 0.0773
LK-2 | – | – | – | – | – | 0.146 | 0.263 | 0.268 | 0.198 | 0.238 | 0.076 | 0.14 | 0.104 | 0.0854 | 0.0916 | 0.174 | 0.187 | 0.184 | 0.146 | 0.159
NCI-H358 | – | – | – | – | – | 0.178 | 0.214 | 0.19 | 0.142 | 0.163 | 0.0853 | 0.0833 | 0.0714 | 0.0722 | 0.067 | 0.1 | 0.0969 | 0.116 | 0.0973 | 0.097
NCI-H522 | – | – | – | – | – | – | – | – | – | – | 0.291 | 0.335 | 0.303 | 0.311 | 0.329 | 0.367 | 0.334 | 0.241 | 0.271 | 0.364
NCI-H1299 | 0.111 | 0.155 | 0.206 | 0.209 | 0.138 | 0.0583 | 0.0875 | 0.103 | 0.0673 | 0.0511 | 0.111 | 0.144 | 0.183 | 0.167 | 0.15 | – | – | – | – | –
NCI-H1395 | – | – | – | – | – | 0.386 | 0.371 | 0.305 | 0.343 | 0.377 | 0.321 | 0.285 | 0.373 | 0.364 | 0.39 | 0.425 | 0.388 | 0.327 | 0.381 | 0.389
NCI-H1563 | 0.664 | 0.701 | 0.611 | 0.574 | 0.553 | 0.593 | 0.519 | 0.614 | 0.561 | 0.584 | – | – | – | – | – | – | – | – | – | –
NCI-H1648 | – | – | – | – | – | – | – | – | – | – | 0.624 | 0.794 | 0.294 | 0.278 | 0.226 | 0.408 | 0.403 | 0.289 | 0.302 | 0.31
NCI-H1703 | 0.0746 | 0.0958 | 0.166 | 0.134 | 0.171 | 0.102 | 0.0942 | 0.162 | 0.159 | 0.167 | 0.0864 | 0.132 | 0.103 | 0.0868 | 0.158 | – | – | – | – | –
NCI-H1793 | – | – | – | – | – | 0.195 | 0.203 | 0.163 | 0.172 | 0.15 | 0.255 | 0.143 | 0.169 | 0.123 | 0.107 | 0.308 | 0.188 | 0.166 | 0.142 | 0.179
NCI-H1944 | – | – | – | – | – | 0.229 | 0.305 | 0.241 | 0.182 | 0.182 | 0.27 | 0.426 | 0.14 | 0.136 | 0.138 | 0.32 | 0.392 | 0.144 | 0.147 | 0.152
NCI-H2170 | – | – | – | – | – | 0.158 | 0.188 | 0.178 | 0.192 | 0.167 | 0.487 | 0.575 | 0.161 | 0.124 | 0.124 | 0.684 | 0.869 | 0.186 | 0.174 | 0.109
NCI-H2342 | – | – | – | – | – | – | – | – | – | – | 0.276 | 0.281 | 0.192 | 0.206 | 0.259 | 0.249 | 0.303 | 0.227 | 0.253 | 0.272
SK-MES-1 | – | – | – | – | – | 0.168 | 0.174 | 0.153 | 0.139 | 0.162 | 0.198 | 0.213 | 0.162 | 0.174 | 0.164 | 0.277 | 0.236 | 0.245 | 0.213 | 0.246
SW 900 | – | – | – | – | – | – | – | – | – | – | 0.233 | 0.116 | 0.135 | 0.164 | 0.16 | 0.125 | 0.165 | 0.137 | 0.142 | 0.168
